Assay results as given in ChEMBL document CHEMBL1255257, “Assessment of serum (1->3)-beta-D-glucan concentration as a measure of disease burden in a murine model of invasive pulmonary aspergillosis” (2008).
Calls of active or inactive are those of the source. The rule behind the calls is not given here.

Experiments:
[1] = system: Aspergillus fumigatus; assay: Antifungal activity against Aspergillus fumigatus isolate CEA 10 infected in ICR mouse assessed as decrease in (1-3)-beta-D-glucan concentration in serum at 40 mg/kg, po QD (RVb= 707 pg/ml); assay type: functional, organism-based; design: dose 40 mg/kg
[2] = system: Aspergillus fumigatus; assay: Antifungal activity against Aspergillus fumigatus isolate AF 293 infected in ICR mouse assessed survival of the mouse at 40 mg/kg, po QD; assay type: functional, organism-based; design: dose 40 mg/kg
[3] = system: Aspergillus fumigatus; assay: Antifungal activity against Aspergillus fumigatus isolate CEA 10 infected in ICR mouse assessed as pulmonary fungal burden at 40 mg/kg, po QD; assay type: functional
[4] = system: Aspergillus fumigatus; assay: Antifungal activity against Aspergillus fumigatus isolate AF 293 infected in ICR mouse assessed as pulmonary fungal burden at 40 mg/kg, po QD; assay type: functional
[5] = system: Aspergillus fumigatus; assay: Antifungal activity against Aspergillus fumigatus isolate CEA 10 infected in ICR mouse assessed survival of the mouse at 40 mg/kg, po QD; assay type: functional, organism-based; design: dose 40 mg/kg
[6] = system: Aspergillus fumigatus; assay: Antifungal activity against Aspergillus fumigatus isolate AF 293 infected in ICR mouse assessed as decrease in (1-3)-beta-D-glucan concentration in serum at 40 mg/kg, po QD (RVb= 758 pg/ml); assay type: functional, organism-based; design: dose 40 mg/kg

## CC[C@@H]([C@H](C)O)n1ncn(-c2ccc(N3CCN(c4ccc(OC[C@@H]5CO[C@@](Cn6cncn6)(c6ccc(F)cc6F)C5)cc4)CC3)cc2)c1=O [POSACONAZOLE]
[1]
  Activity: Active
[2]
  Activity: Active
[3]
  fold change (FC): 7.3
[4]
  fold change (FC): 3.6
[5]
  Activity: Active
[6]
  Activity: Active
